For one assay, the system named is B16 melanoma cells. Description: B16 melanoma lung metastases in mice treated with TA99 antibody, with or without ZM. It counts as in vivo. Conditions: Wt mice, 200 ug TA99 on day +1 plus ZM 10 mg/kg IP twice a day from Day 0; Day +15 (FIG. 17). As to the method:
Wt and A2a receptor null mice received 1 million B16 melanoma cells IV on day 0. Control mice received not treatment. Treated mice received 200 ug IP of TA99 antibody on days 0, 2, 5. The mice were sacrificed on Day 15 and lung mets were counted.
Wt mice received 1 million B16 melanoma cells on Day 0. On day +1 they received either no treatment or 200 ug of TA99 antibody. Zm treated mice received 10 mg/kg IP of ZM twice a day beginning on Day 0 and continuing for the remainder of the experiment. The mice were evaluated on Day +15.
Wt and A2a receptor null mice received 1 million B16 melanoma cells IV on day 0. Control mice received not treatment. Treated mice received 200 ug IP of TA99 antibody on days 0, 2, 5. The mice were sacrificed on Day 15 and lung metastases were counted. […] Eliminating A2a receptor activity in the mice reduced melanoma metastases by approximately 50% and treatment with the antibody reduced metastases by approximately 60%. However, when knock out mice are treated with the antibody, the level of tumor metastases dropped by approximately 80% when compared to untreated wild type, and by 50% or more when compared to either the knock out or antibody treated wild type mice.

The subject of the next assay is LAG-3. Description: LAG-3 upregulation in A.E7 T cells (ionomycin or PMA stimulation; CsA). In kind it is cell-based. The settings on record: ionomycin alone (FIG. 3c). From the text: FIGS. 3(a)-(f) are graphs showing that A2a receptor signaling promotes the upregulation of LAG-3^+ in vitro. […] Data are representative of 3 independent experiments. 3(c) is a graph of LAG3 upregulation in A.E7 T cells following stimulation with ionomycin or PMA. 3(d) is an image of representative Western blots for phosphor-ERK and total ERK (top and bottom respectively). […] Data are representative of 3 independent experiments. 3(e) is an image of representative Western blots for junB, and actin (top and bottom, respectively). […] Data are representative of 3 independent experiments. 3(f) is an image of representative EMSA for AP-1. […] Data are representative of 3 independent experiments.

As for `Nc1nc(NCCc2ccc(O)cc2)nc2nc(-c3ccco3)nn12` [ZM, 4-(2-[7-amino-2-(2-furyl)[1,2,4]triazolo[2,3-a][1,3,5]triazin-5-ylamino]ethyl)phenol], in the assay on B16 melanoma cells, the “reduction of average lung metastases, antibody in combination with ZM” value is given as “approximately 80%”. Take `C[C@H](CCC(=O)O)C[C@H](C)C[C@H](C)C(=O)/C=C(\O)[C@H](C)C[C@H](C)C/C=C/[C@@H](C)[C@@H](O)[C@@H](C)[C@@H](O)C[C@@H]1CC[C@@](C)([C@H]2CC[C@@](C)([C@@H](C)O)O2)O1` [ionomycin]: in the assay on LAG-3, the LAG-3 upregulation result was “markedly upregulated”.

The record behind these values is patent publication US9585957B2, “Adenosine receptor agonists and antagonists to modulate T cell responses” (THE JOHNS HOPKINS UNIVERSITY, priority 2007, dated 2017).
